Laboratory results taken from US20250100962A1 (CITY OF HOPE, priority 2023, published 2025).

Experiments:
[1] = system: U2OS cells containing Per2::dLuc luciferase reporter; experiment: Real-time bioluminescence monitoring of Per2::Luciferase reporter in U2OS cells (LumiCycle); format: cell-based; settings: for LumiCycle Result: Clock activity (overall) / LumiCycle Result: Clock activity, Amplitude / LumiCycle Result: Clock activity, Period: U2OS Per2::dLuc; for LumiCycle Result: Clock activity (overall): CHX analogs screened; for LumiCycle Result: Clock activity, Amplitude / LumiCycle Result: Clock activity, Period: Table 1; for Modulatory Property: clock-modulatory classification
Description: U2OS cells or mouse fibroblasts (MF) containing a Per2-luciferase reporter (Yoo et al., 2004) were seeded at 4×10^5 concentration on 24 well plates and treated at 90% confluence with 1 ml 1×Fresh explant medium with desired compounds and controls. The seeding density was decided after trying several densities and choosing the one that after 24 h lead to 90% confluence. 1× Fresh explant medium was produced using 50% 2×DMEM buffer stock [DMEM powder (Gibco—Thermo Fisher CN: 12800-017), Sterile MilliQ water, pH7 1 M HEPES (Gibco—Thermo Fisher CN:15630080) and 7.5% Sodium Bicarbonate (Gibco—Thermo Fisher CN: 25080094)], 10% FBS (Cytiva), 37.9% Sterile MiliQ water, 1% PSG 100× (Gibco—Thermo Fisher CN: 10378016), 0.1% Sodium Hydroxixe (NaOH) 100 mM (Fishel Chemical CN: S318-500), 1% XenoLight D-Luciferin—Monopotassium Salt Bioluminiscent Substrate 100 mM (PerkinElmer CN: 122799). Treated cells were introduced to the LumiCycle96 (ActiMetrics) were they were cultured and Per2-luciferafe reporter luminescence was measured for 6 days. Raw and subtracted results for 5 days were exported and data was calculated as luminescence counts per second.

[2] = system: C2C12 myoblasts; experiment: Myogenic differentiation of C2C12 myoblasts; format: cell-based, mouse; settings: Table 1 summary of CHX analogs
Description: Pictures were taken every day to monitor morphological progression, and proteins and RNA samples were collected on days indicated.
C2C12, C2C12 Bmal1 KD and C2C12 Scrambled control (SC) myoblasts were seeded at Day −1 at 2×105 concentration on 12 wells plates and maintained in 10% FBS until 80% confluency and treated with indicated compounds and controls in 2% FBS DMEM media to induce differentiation on Day 0. On days 3, 5 and 7 cells were fixed with 4% paraformaldehyde (from 37% Formaldehyde Baker Analyzed) and kept at 4° C. in PBS. Cells were permeabilized with Permeabilization solution of 0.5% Triton X-100 (Fisher Bioreagents CN: 9002-93-1) in PBS and blocked with Blocking solution of 1% BSA (Fisher Bioreagents CN:9048-46-8) in PBS. Primary antibodies were diluted in Washing solution of 0.01% Triton X-100 (Fisher Bioreagents CN: 9002-93-1) in PBS and left overnight at 4° C. Cells were then incubated with secondary antibodies in Washing solution at room temperature for 1 h. 1 μg/ml 4′,6′-diamidine-2′-phenylindole dihydrochloride (DAPI) was used to label for nuclei. […] To quantify the proliferation of myoblast, when needed, cells were treated with 1 μg/ml of EdU for 3 h before fixation. Detection of EdU was performed with Click-iT EdU Alexa Fluor 488 Imaging Kit before applying the immunofluorescence staining as described above.

[3] = system: CLOCK protein; experiment: CLOCK protein palmitoylation (acyl-biotin exchange) and stability; format: cell-based
Source text: FIGS. 11A-11C. Analysis of CLOCK protein S-palmitoylation. FIGS. 11A-11B: Identification of CLOCK palmitoylation by acyl-biotin exchange method using hydroxylamine (HAM). […] FIG. 11C: Structural modeling of the palmitoylation pocket and the docking pose within the hydrophobic pocket that lies between the interface of CLOCK interaction with Bmal1. FIGS. 12A-12C. Palmitoylation modulates CLOCK protein stability and interaction with Bmal1. […] FIG. 12B: CLOCK palmitoylation cysteine mutations inhibit its interaction with heterodimer partner Bmal1 and Bmal1 stability by single amino acid mutations. FIG. 12C: CLOCK palmitoylation site mutations attenuated CLOCK-mediated transcription activation.

[4] = system: mice; settings: chow and high-fat diet; Xiong et al., 2023; cited from earlier work

Compound | LumiCycle Result: Clock activity (overall) [1] | Myogenesis [2] | LumiCycle Result: Clock activity, Amplitude [1] | also measured
N=C(NCCCCCCNC(=N)Nc1ccc(Cl)cc1)NC(=N)Nc1ccc(Cl)cc1 [CM003] | No effect | – | – | –
N=C(NCCCCCCCCCCCCCCNC(=N)NC(=N)Nc1ccc(Cl)cc1)NC(=N)Nc1ccc(Cl)cc1 [CM005] | – | Slight inhition | Amplitude: Increased at low | LumiCycle Result: Clock activity, Period [1]: Period: Lengthening; Modulatory Property [1]: Inhibitor
CCCCCCCCCCCCCCC(Br)C(=O)O (centres unmarked) [2-BrP] | – | – | – | CLOCK protein stability [3]: reduces CLOCK protein stability; CLOCK palmitoylation ([3]; Flag-tagged CLOCK in HEK 293T cells): loss of CLOCK palmitoylation
N=C(NCCCCCCNC(N)=O)NC(=N)Nc1ccc(Cl)cc1 [CM008] | Cellular toxicity | – | – | –
CCCCCCCNC(=N)NC(=N)Nc1ccc(Cl)cc1 [CM001] | – | No effect | Amplitude: No effect | –
N=C(NCCCCCCNC(=N)Nc1ccc(Cl)cc1)Nc1ccc(Cl)cc1 [CM004] | – | Enhanced | Amplitude: Increased | LumiCycle Result: Clock activity, Period [1]: Period: Shortening; Modulatory Property [1]: Activator
CCCCCCCNC(=N)Nc1nc2ccc(Cl)cc2[nH]1 [CM007] | No effect | – | – | –
CCCCCCCCCCC[C@@H](C[C@@H]1OC(=O)[C@H]1CCCCCC)OC(=O)[C@H](CC(C)C)NC=O [Orlistat] | – | – | – | CLOCK protein stability [3]: reduces CLOCK protein stability
COc1ccc(-c2cc(=O)c3c(OC)c(OC)c(OC)c(OC)c3o2)cc1OC [Nobiletin] | – | – | – | anti-obesity effect [4]: strong anti-obesity effect
